Each structure is given as a SMILES string.

For assay [1], the target named is GST-Bcl-XL (Homo sapiens, UniProt Q07817). The assay is described as follows: TR-FRET binding assay, GST-Bcl-XL with F-Bak peptide probe. Particulars: TR-FRET Binding Affinity, GST-Bcl-XL, F-Bak peptide probe. In outline: (§1)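 Displacement of a fluorescein-labelled Bak peptide from the GST-tagged protein was followed by time-resolved FRET with a terbium anti-GST donor after 3 h incubation at room temperature. Inhibition constants were calculated with Wang's equation.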
Chain of GST-Bcl-XL (Q07817 whole entry): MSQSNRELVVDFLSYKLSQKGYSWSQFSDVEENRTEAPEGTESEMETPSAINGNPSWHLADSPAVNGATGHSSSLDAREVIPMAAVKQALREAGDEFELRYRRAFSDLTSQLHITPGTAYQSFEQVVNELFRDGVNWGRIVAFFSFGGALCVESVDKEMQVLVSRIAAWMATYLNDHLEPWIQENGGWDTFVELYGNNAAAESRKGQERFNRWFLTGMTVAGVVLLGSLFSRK

The target in assay [2] is GST-Bcl-2 (Homo sapiens, UniProt P10415). Nature of the assay: TR-FRET binding assay, GST-Bcl-2 with F-Bak peptide probe. Particulars: TR-FRET Binding Affinity, GST-Bcl-2, F-Bak peptide probe. The essentials:
as §1

The test system of assay [3] is FL5.12/Bcl-2 cells. Nature of the assay: FL5.12/Bcl-2 cell viability assay under IL-3 withdrawal (CellTitre Glo). In kind it is cell-based, murine. Particulars: Mus musculus, IL-3 withdrawn 48 hrs, then 24 hrs with compound. The essentials: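 Murine IL-3-dependent FL5.12 cells stably overexpressing Bcl-2 were deprived of IL-3 (WEHI-3B conditioned medium) for 48 h, then exposed to various compound concentrations for 24 h at 37 °C. Viability read by CellTiter-Glo luminescence.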

Chain of GST-Bcl-2 (P10415 whole entry): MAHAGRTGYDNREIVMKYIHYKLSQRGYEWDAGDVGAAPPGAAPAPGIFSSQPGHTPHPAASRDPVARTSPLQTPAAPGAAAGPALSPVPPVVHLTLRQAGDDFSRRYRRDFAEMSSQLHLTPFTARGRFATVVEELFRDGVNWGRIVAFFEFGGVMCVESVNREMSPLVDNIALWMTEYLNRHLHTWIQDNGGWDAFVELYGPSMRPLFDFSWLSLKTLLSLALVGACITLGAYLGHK

Turning to `CN1CCN(Nc2ccc(S(=O)(=O)NC(=O)c3ccc(N4CCN(CC5=C(c6ccc(Cl)cc6)CCC(O)C5)CC4)cc3Oc3ccc4[nH]ccc4c3)cc2[N+](=O)[O-])CC1` (stereo not drawn) [Example 226, 4-(4-{[2-(4-chlorophenyl)-5-hydroxycyclohex-1-en-1-yl]methyl}piperazin-1-yl)-2-(1H-indol-5-yloxy)-N-({4-[(4-methylpiperazin-1-yl)amino]-3-nitrophenyl}sulfonyl)benzamide], the results for the Ki in assay [1] and in assay [2] were 9.93 nM and 0.017 nM, respectively. In addition, the concentration giving a half-maximal response (EC50) in assay [3] was determined as 23 nM.
For `CC1(C)CCC(CN2CCN(c3ccc(C(=O)NS(=O)(=O)c4ccc(NC5CCN(C6Cc7ccccc7C6)CC5)c([N+](=O)[O-])c4)c(Oc4cccc5[nH]ccc45)c3)CC2)=C(c2ccc(Cl)cc2)C1` [Example 227, 4-(4-{[2-(4-chlorophenyl)-4,4-dimethylcyclohex-1-en-1-yl]methyl}piperazin-1-yl)-N-[(4-{[1-(2,3-dihydro-1H-inden-2-yl)piperidin-4-yl]amino}-3-nitrophenyl)sulfonyl]-2-(1H-indol-4-yloxy)benzamide], in that order: more than 660 nM, 6.83 nM and more than 500 nM.
Taken in the same sequence, the figures for `CC1(C)CCC(CN2CCN(c3ccc(C(=O)NS(=O)(=O)c4ccc(NC5CCN(C6Cc7ccccc7C6)CC5)c([N+](=O)[O-])c4)c(Oc4ccc5[nH]ccc5c4)c3)CC2)=C(c2ccc(Cl)cc2)C1` [Example 228, 4-(4-{[2-(4-chlorophenyl)-4,4-dimethylcyclohex-1-en-1-yl]methyl}piperazin-1-yl)-N-[(4-{[1-(2,3-dihydro-1H-inden-2-yl)piperidin-4-yl]amino}-3-nitrophenyl)sulfonyl]-2-(1H-indol-5-yloxy)benzamide] were more than 660 nM, 4.67 nM and more than 500 nM.
Taken in the same sequence, the figures for `CC1(C)CCC(CN2CCN(c3ccc(C(=O)NS(=O)(=O)c4ccc(NCC5(N6CCOCC6)CCCCC5)c([N+](=O)[O-])c4)c(Oc4ccc5[nH]ccc5c4)c3)CC2)=C(c2ccc(Cl)cc2)C1` [Example 229, 4-(4-{[2-(4-chlorophenyl)-4,4-dimethylcyclohex-1-en-1-yl]methyl}piperazin-1-yl)-2-(1H-indol-5-yloxy)-N-[(4-{[(1-morpholin-4-ylcyclohexyl)methyl]amino}-3-nitrophenyl)sulfonyl]benzamide] were more than 660 nM, 49.4 nM and more than 500 nM.
As for `CC1(C)CCC(CN2CCN(c3ccc(C(=O)NS(=O)(=O)c4ccc(NC5CCN(Cc6nccs6)CC5)c([N+](=O)[O-])c4)c(Oc4ccc5[nH]ccc5c4)c3)CC2)=C(c2ccc(Cl)cc2)C1` [Example 230, 4-(4-{[2-(4-chlorophenyl)-4,4-dimethylcyclohex-1-en-1-yl]methyl}piperazin-1-yl)-2-(1H-indol-5-yloxy)-N-[(3-nitro-4-{[1-(1,3-thiazol-2-ylmethyl)piperidin-4-yl]amino}phenyl)sulfonyl]benzamide], the Ki in assay [1] was more than 660 nM; in assay [2], 8.82 nM. Also, the concentration for a half-maximal effect (EC50) in assay [3] was found to be 178 nM.
Taken in the same sequence, the figures for `CC1(C)CCC(CN2CCN(c3ccc(C(=O)NS(=O)(=O)c4ccc(NC5CCN(Cc6cscn6)CC5)c([N+](=O)[O-])c4)c(Oc4ccc5[nH]ccc5c4)c3)CC2)=C(c2ccc(Cl)cc2)C1` [Example 231, 4-(4-{[2-(4-chlorophenyl)-4,4-dimethylcyclohex-1-en-1-yl]methyl}piperazin-1-yl)-2-(1H-indol-5-yloxy)-N-[(3-nitro-4-{[1-(1,3-thiazol-4-ylmethyl)piperidin-4-yl]amino}phenyl)sulfonyl]benzamide] were more than 660 nM, 0.918 nM and 50.9 nM.
Regarding `CC1(C)CCC(CN2CCN(c3ccc(C(=O)NS(=O)(=O)c4ccc(NCC5(CO)CCOCC5)c([N+](=O)[O-])c4)c(Oc4ccc5[nH]ccc5c4)c3)CC2)=C(c2ccc(Cl)cc2)C1` [Example 232, 4-(4-{[2-(4-chlorophenyl)-4,4-dimethylcyclohex-1-en-1-yl]methyl}piperazin-1-yl)-N-{[4-({[4-(hydroxymethyl)tetrahydro-2H-pyran-4-yl]methyl}amino)-3-nitrophenyl]sulfonyl}-2-(1H-indol-5-yloxy)benzamide], the results for the inhibition constant (Ki) in assay [1] and in assay [2] were 197 nM and 0.46 nM, respectively. For the same compound, the EC50 in assay [3] came out at 12.3 nM.
For `CC1(C)CCC(CN2CCN(c3ccc(C(=O)NS(=O)(=O)c4ccc(NCC5(O)CCCCC5)c([N+](=O)[O-])c4)c(Oc4ccc5[nH]ccc5c4)c3)CC2)=C(c2ccc(Cl)cc2)C1` [Example 238, 4-(4-{[2-(4-chlorophenyl)-4,4-dimethylcyclohex-1-en-1-yl]methyl}piperazin-1-yl)-N-[(4-{[(1-hydroxycyclohexyl)methyl]amino}-3-nitrophenyl)sulfonyl]-2-(1H-indol-5-yloxy)benzamide], in that order: more than 660 nM, 0.43 nM and 59 nM.
Taken in the same sequence, the figures for `COCCNc1ccc(S(=O)(=O)NC(=O)c2ccc(N3CCN(CC4=C(c5ccc(Cl)cc5)CC(C)(C)CC4)CC3)cc2Oc2cccc3[nH]ccc23)cc1[N+](=O)[O-]` [Example 239, 4-(4-{[2-(4-chlorophenyl)-4,4-dimethylcyclohex-1-en-1-yl]methyl}piperazin-1-yl)-2-(1H-indol-4-yloxy)-N-({4-[(2-methoxyethyl)amino]-3-nitrophenyl}sulfonyl)benzamide] were 108 nM, 0.252 nM and 17.6 nM.
Regarding `CC1(C)CCC(CN2CCN(c3ccc(C(=O)NS(=O)(=O)c4ccc(NC5(CO)CCOCC5)c([N+](=O)[O-])c4)c(Oc4ccc5[nH]ccc5c4)c3)CC2)=C(c2ccc(Cl)cc2)C1` [Example 240, 4-(4-{[2-(4-chlorophenyl)-4,4-dimethylcyclohex-1-en-1-yl]methyl}piperazin-1-yl)-N-[(4-{[4-(hydroxymethyl)tetrahydro-2H-pyran-4-yl]amino}-3-nitrophenyl)sulfonyl]-2-(1H-indol-5-yloxy)benzamide], the inhibitory constant (Ki) in assay [1] was more than 660 nM; in assay [2], 0.83 nM. Besides, the concentration for a half-maximal effect (EC50) in assay [3] stood at 209 nM.
For `CC1(C)CCC(CN2CCN(c3ccc(C(=O)NS(=O)(=O)c4ccc(NC(CO)C5CCOCC5)c([N+](=O)[O-])c4)c(Oc4ccc5[nH]ccc5c4)c3)CC2)=C(c2ccc(Cl)cc2)C1` (stereo not drawn) [Example 242, 4-(4-{[2-(4-chlorophenyl)-4,4-dimethylcyclohex-1-en-1-yl]methyl}piperazin-1-yl)-N-({4-[(2-hydroxy-1-tetrahydro-2H-pyran-4-ylethyl)amino]-3-nitrophenyl}sulfonyl)-2-(1H-indol-5-yloxy)benzamide], the Ki in assay [1] was more than 660 nM; in assay [2], 1.8 nM. In assay [3], the concentration for a half-maximal effect (EC50) amounted to 165 nM.
Turning to `CC1(C)CCC(CN2CCN(c3ccc(C(=O)NS(=O)(=O)c4ccc(NC5CCN(CCn6cccn6)CC5)c([N+](=O)[O-])c4)c(Oc4ccc5[nH]ccc5c4)c3)CC2)=C(c2ccc(Cl)cc2)C1` [Example 243, 4-(4-{[2-(4-chlorophenyl)-4,4-dimethylcyclohex-1-en-1-yl]methyl}piperazin-1-yl)-2-(1H-indol-5-yloxy)-N-{[3-nitro-4-({1-[2-(1H-pyrazol-1-yl)ethyl]piperidin-4-yl}amino)phenyl]sulfonyl}benzamide], the Ki in assay [1] is more than 660 nM; in assay [2] it was 0.28 nM. Besides, the EC50 in assay [3] stood at 28 nM.
Taken in the same sequence, the figures for `CC1(C)CCC(CN2CCN(c3ccc(C(=O)NS(=O)(=O)c4ccc(NCC5CCOCC5)c([N+](=O)[O-])c4)c(Oc4cccc5[nH]ccc45)c3)CC2)=C(c2ccc(Cl)cc2)C1` [Example 244, 4-(4-{[2-(4-chlorophenyl)-4,4-dimethylcyclohex-1-en-1-yl]methyl}piperazin-1-yl)-2-(1H-indol-4-yloxy)-N-({3-nitro-4-[(tetrahydro-2H-pyran-4-ylmethyl)amino]phenyl}sulfonyl)benzamide] were more than 660 nM, 0.16 nM and 20.2 nM.
Taken in the same sequence, the figures for `CNc1ccc(S(=O)(=O)NC(=O)c2ccc(N3CCN(CC4=C(c5ccc(Cl)cc5)CC(C)(C)CC4)CC3)cc2Oc2ccc3[nH]ccc3c2)cc1[N+](=O)[O-]` [Example 245, 4-(4-{[2-(4-chlorophenyl)-4,4-dimethylcyclohex-1-en-1-yl]methyl}piperazin-1-yl)-2-(1H-indol-5-yloxy)-N-{[4-(methylamino)-3-nitrophenyl]sulfonyl}benzamide] were more than 660 nM, 1.62 nM and 72.4 nM.
Taken in the same sequence, the figures for `CNc1ccc(S(=O)(=O)NC(=O)c2ccc(N3CCN(CC4=C(c5ccc(Cl)cc5)CC(C)(C)CC4)CC3)cc2Oc2cccc3[nH]ccc23)cc1[N+](=O)[O-]` [Example 246, 4-(4-{[2-(4-chlorophenyl)-4,4-dimethylcyclohex-1-en-1-yl]methyl}piperazin-1-yl)-2-(1H-indol-4-yloxy)-N-{[4-(methylamino)-3-nitrophenyl]sulfonyl}benzamide] were 384 nM, 0.783 nM and 48 nM.
Take `CC(c1ccccc1-c1ccc(Cl)cc1)N1CCN(c2ccc(C(=O)NS(=O)(=O)c3ccc(NCCCN4CCOCC4)c([N+](=O)[O-])c3)c(Oc3cccc4[nH]ccc34)c2)CC1` (stereo not drawn) [Example 247, 4-{4-[1-(4′-chloro-1,1′-biphenyl-2-yl)ethyl]piperazin-1-yl}-2-(1H-indol-4-yloxy)-N-({4-[(3-morpholin-4-ylpropyl)amino]-3-nitrophenyl}sulfonyl)benzamide]: the Ki was found to be 27.3 nM in assay [1] and 0.188 nM in assay [2]. For the same compound, in assay [3], the EC50 was 16.1 nM.

Broadly, the Ki is the dissociation constant of the complex between target and ligand, obtained from inhibition or displacement. What is called EC50 is the concentration needed to bring the measured effect to its halfway point.

Values taken from patent US9073855B2, “BCL-2 selective apoptosis-inducing agents for the treatment of cancer and immune diseases” (AbbVie Inc., priority 2008, dated 2015).
